According to ChEMBL document CHEMBL1201861, “Genomics of Drug Sensitity in Cancer screening data, Wellcome Trust Sanger Institute”:

Experiments:
Test in all cases: cells
RPMI-8226 = format: functional, cell-based, Homo sapiens; conditions: Homo sapiens, RPMI-8226
Description: SANGER: Inhibition of human RPMI-8226 cell growth in a cell viability assay.

EW-1 = format: functional, cell-based, Homo sapiens; conditions: Homo sapiens, EW-1;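 also: growth inhibition of the human EW-1 cell line, read out by a cell viability assay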
Description: SANGER: Inhibition of human EW-1 cell growth in a cell viability assay.

OS-RC-2 = format: functional, cell-based, Homo sapiens; conditions: Homo sapiens, OS-RC-2;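 also: growth inhibition of human OS-RC-2 cells, measured by a cell viability assay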
Description: SANGER: Inhibition of human OS-RC-2 cell growth in a cell viability assay.

KS-1 = format: functional, cell-based; conditions: Homo sapiens;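 also: growth inhibition of KS-1 cells, read out with a cell viability assay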
Description: SANGER: Inhibition of human KS-1 cell growth in a cell viability assay.

KINGS-1 = format: functional, cell-based, Homo sapiens; conditions: Homo sapiens, KINGS-1;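 also: cell viability assay measuring suppression of KINGS-1 cell growth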
Description: SANGER: Inhibition of human KINGS-1 cell growth in a cell viability assay.

MN-60 = format: functional, cell-based, Homo sapiens; conditions: Homo sapiens, MN-60;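 also: growth inhibition of the MN-60 cell line, determined with a cell viability assay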
Description: SANGER: Inhibition of human MN-60 cell growth in a cell viability assay.

TGW = format: functional, cell-based, Homo sapiens; conditions: Homo sapiens, TGW;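 also: growth inhibition of human TGW cells, read out with a cell viability assay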
Description: SANGER: Inhibition of human TGW cell growth in a cell viability assay.

GOTO = format: functional, cell-based, Homo sapiens; conditions: Homo sapiens, GOTO;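 also: growth inhibition of GOTO cells, read out by a cell viability assay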
Description: SANGER: Inhibition of human GOTO cell growth in a cell viability assay.

MHH-PREB-1 = format: functional, cell-based, Homo sapiens; conditions: Homo sapiens, MHH-PREB-1;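 also: cell viability assay measuring inhibition of proliferation of human MHH-PREB-1 cells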
Description: SANGER: Inhibition of human MHH-PREB-1 cell growth in a cell viability assay.

NCI-H446 = format: functional, cell-based, Homo sapiens; conditions: Homo sapiens, NCI-H446;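 also: growth inhibition of NCI-H446 cells determined by a cell viability assay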
Description: SANGER: Inhibition of human NCI-H446 cell growth in a cell viability assay.

SK-UT-1 = format: functional, cell-based, Homo sapiens; conditions: Homo sapiens, SK-UT-1;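 also: growth inhibition of SK-UT-1 cells, measured by a cell viability assay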
Description: SANGER: Inhibition of human SK-UT-1 cell growth in a cell viability assay.

HOP-62 = format: functional, cell-based, Homo sapiens; conditions: Homo sapiens, HOP-62;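 also: cell growth inhibition determined with a viability assay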
Description: SANGER: Inhibition of human HOP-62 cell growth in a cell viability assay.

DSH1 = format: functional, cell-based; conditions: Homo sapiens;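 also: growth inhibition of human DSH1 cells, measured with a cell viability readout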
Description: SANGER: Inhibition of human DSH1 cell growth in a cell viability assay.

CW-2 = format: functional, cell-based, Homo sapiens; conditions: Homo sapiens, CW-2;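 also: growth inhibition of CW-2 cells, read out by a cell viability assay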
Description: SANGER: Inhibition of human CW-2 cell growth in a cell viability assay.

NCI-H747 = format: functional, cell-based, Homo sapiens; conditions: Homo sapiens, NCI-H747;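 also: growth inhibition of human NCI-H747 cells, read out by a cell viability assay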
Description: SANGER: Inhibition of human NCI-H747 cell growth in a cell viability assay.

NKM-1 = format: functional, cell-based, Homo sapiens; conditions: Homo sapiens, NKM-1;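 also: growth inhibition of NKM-1 cells, read out with a cell viability assay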
Description: SANGER: Inhibition of human NKM-1 cell growth in a cell viability assay.

GCIY = format: functional, cell-based, Homo sapiens; conditions: Homo sapiens, GCIY;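 also: growth inhibition of the human GCIY cell line, read out by a cell viability assay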
Description: SANGER: Inhibition of human GCIY cell growth in a cell viability assay.

A253 cell line = format: functional, cell-based, Homo sapiens; conditions: Homo sapiens, A253;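 also: growth inhibition of A253 cells, read out with a cell viability assay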
Description: SANGER: Inhibition of human A253 cell growth in a cell viability assay.

LB996-RCC = format: functional, cell-based, Homo sapiens; conditions: Homo sapiens, LB996-RCC
Description: SANGER: Inhibition of human LB996-RCC cell growth in a cell viability assay.

LB2518-MEL = format: functional, cell-based; conditions: Homo sapiens;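 also: growth inhibition of human LB2518-MEL cells, measured with a cell viability assay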
LB2241-RCC = format: functional, cell-based, Homo sapiens; conditions: Homo sapiens, LB2241-RCC;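 also: cell viability assay measuring how strongly the cultured human renal carcinoma line is prevented from growing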
NCI-H1838 = format: functional, cell-based, Homo sapiens; conditions: Homo sapiens, NCI-H1838;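 also: growth inhibition of NCI-H1838 cells, determined with a cell viability readout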
Description: SANGER: Inhibition of human NCI-H1838 cell growth in a cell viability assay.

HCE-4 = format: functional, cell-based; conditions: Homo sapiens;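 also: cell viability assay measuring inhibition of growth in the human HCE-4 cell line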
Description: SANGER: Inhibition of human HCE-4 cell growth in a cell viability assay.

GT3TKB = format: functional, cell-based, Homo sapiens; conditions: Homo sapiens, GT3TKB;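 also: growth inhibition of the cell line, read out with a cell viability assay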
Description: SANGER: Inhibition of human GT3TKB cell growth in a cell viability assay.

KARPAS-299 = format: functional, cell-based, Homo sapiens; conditions: Homo sapiens, KARPAS-299
Description: SANGER: Inhibition of human KARPAS-299 cell growth in a cell viability assay.

OMC-1 = format: functional, cell-based, Homo sapiens; conditions: Homo sapiens, OMC-1;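 also: growth inhibition of the OMC-1 cell line, measured by a cell viability assay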
NOMO-1 = format: functional, cell-based, Homo sapiens; conditions: Homo sapiens, NOMO-1;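 also: growth inhibition of human NOMO-1 cells measured by a cell viability assay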
Description: SANGER: Inhibition of human NOMO-1 cell growth in a cell viability assay.

KURAMOCHI = format: functional, cell-based, Homo sapiens; conditions: Homo sapiens, KURAMOCHI;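 also: growth inhibition of KURAMOCHI cells, read out with a cell viability assay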
Description: SANGER: Inhibition of human KURAMOCHI cell growth in a cell viability assay.

EKVX = format: functional, cell-based, Homo sapiens; conditions: Homo sapiens, EKVX;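 also: growth inhibition of human EKVX cells, read out with a cell viability assay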
Description: SANGER: Inhibition of human EKVX cell growth in a cell viability assay.

D-502MG = format: functional, cell-based, Homo sapiens; conditions: Homo sapiens, D-502MG
Description: SANGER: Inhibition of human D-502MG cell growth in a cell viability assay.

TE-6 = format: functional, cell-based, Homo sapiens; conditions: Homo sapiens, TE-6;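 also: growth inhibition of TE-6 cells, read out with a cell viability assay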
Description: SANGER: Inhibition of human TE-6 cell growth in a cell viability assay.

COLO-320-HSR = format: functional, cell-based, Homo sapiens; conditions: Homo sapiens, COLO-320-HSR;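 also: growth inhibition of COLO-320-HSR cells, determined with a cell viability assay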
Description: SANGER: Inhibition of human COLO-320-HSR cell growth in a cell viability assay.

NCI-H1304 = format: functional, cell-based, Homo sapiens; conditions: Homo sapiens, NCI-H1304;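 also: growth inhibition of the cancer cell line, measured in a cell viability assay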
Description: SANGER: Inhibition of human NCI-H1304 cell growth in a cell viability assay.

NMC-G1 = format: functional, cell-based, Homo sapiens; conditions: Homo sapiens, NMC-G1;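 also: growth inhibition of the NMC-G1 cell line, measured with a cell viability read-out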
Description: SANGER: Inhibition of human NMC-G1 cell growth in a cell viability assay.

A3-KAW = format: functional, cell-based, Homo sapiens; conditions: Homo sapiens, A3-KAW;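 also: growth inhibition of human A3-KAW cells, read out with a cell viability assay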
Description: SANGER: Inhibition of human A3-KAW cell growth in a cell viability assay.

NCI-H2126 = format: functional, cell-based, Homo sapiens; conditions: Homo sapiens, NCI-H2126;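 also: growth inhibition of the cancer cell line, determined with a cell viability readout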
Description: SANGER: Inhibition of human NCI-H2126 cell growth in a cell viability assay.

LNCaP-Clone-FGC = format: functional, cell-based, Homo sapiens; conditions: Homo sapiens, LNCaP-Clone-FGC
Description: SANGER: Inhibition of human LNCaP-Clone-FGC cell growth in a cell viability assay.

SW982 = format: functional, cell-based; conditions: Homo sapiens;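 also: growth inhibition of SW982 cells, read out with a cell viability assay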
Description: SANGER: Inhibition of human SW982 cell growth in a cell viability assay.

HD-MY-Z = format: functional, cell-based, Homo sapiens; conditions: Homo sapiens, HD-MY-Z;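 also: growth inhibition of HD-MY-Z cells, read out with a cell viability assay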
Description: SANGER: Inhibition of human HD-MY-Z cell growth in a cell viability assay.

HL-60 = format: functional, cell-based, Homo sapiens; conditions: Homo sapiens, HL-60;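 also: growth inhibition of human HL-60 cells, read out with a cell viability assay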
Description: SANGER: Inhibition of human HL-60 cell growth in a cell viability assay.

MLMA = format: functional, cell-based, Homo sapiens; conditions: Homo sapiens, MLMA;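 also: growth inhibition of MLMA cells (human), determined through a cell viability readout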
Description: SANGER: Inhibition of human MLMA cell growth in a cell viability assay.

NCI-H1581 = format: functional, cell-based, Homo sapiens; conditions: Homo sapiens, NCI-H1581;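 also: cell growth inhibition read out by a viability assay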
Description: SANGER: Inhibition of human NCI-H1581 cell growth in a cell viability assay.

Calu-6 = format: functional, cell-based, Homo sapiens; conditions: Homo sapiens, Calu-6;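 also: growth of human Calu-6 cells, read out by a cell viability assay, IC50 marking inhibition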
Description: SANGER: Inhibition of human Calu-6 cell growth in a cell viability assay.

HT-144 = format: functional, cell-based, Homo sapiens; conditions: Homo sapiens, HT-144
SK-LMS-1 = format: functional, cell-based, Homo sapiens; conditions: Homo sapiens, SK-LMS-1;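 also: growth inhibition of human SK-LMS-1 cells, read out with a cell viability assay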
NB13 = format: functional, cell-based, Homo sapiens; conditions: Homo sapiens, NB13;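 also: cell viability readout measuring growth inhibition of human NB13 cells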
Description: SANGER: Inhibition of human NB13 cell growth in a cell viability assay.

ALL-PO = format: functional, cell-based, Homo sapiens; conditions: Homo sapiens, ALL-PO;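 also: growth inhibition of ALL-PO cells, read out by a cell viability assay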
Description: SANGER: Inhibition of human ALL-PO cell growth in a cell viability assay.

KM-H2 = format: functional, cell-based, Homo sapiens; conditions: Homo sapiens, KM-H2;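 also: growth inhibition of KM-H2 cells, read out by a cell viability assay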
Description: SANGER: Inhibition of human KM-H2 cell growth in a cell viability assay.

AM-38 = format: functional, cell-based, Homo sapiens; conditions: Homo sapiens, AM-38;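 also: growth inhibition of AM-38 cells of human origin, read out by a cell viability assay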
Description: SANGER: Inhibition of human AM-38 cell growth in a cell viability assay.

TE-1 = format: functional, cell-based, Homo sapiens; conditions: Homo sapiens, TE-1;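 also: growth inhibition of the human TE-1 cell line, read out with a cell viability assay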

C[C@@H](Oc1cc(-c2cnn(C3CCNCC3)c2)cnc1N)c1c(Cl)ccc(F)c1Cl [CRIZOTINIB]
IC50 (RPMI-8226): > 2000 nM | IC50 (EW-1): > 2000 nM | IC50 (OS-RC-2): > 2000 nM | IC50 (KS-1): > 2000 nM | IC50 (KINGS-1): 750 nM | IC50 (MN-60): > 2000 nM | IC50 (TGW): > 2000 nM | IC50 (GOTO): > 2000 nM | IC50 (MHH-PREB-1): > 2000 nM | IC50 (NCI-H446): > 2000 nM | IC50 (SK-UT-1): > 2000 nM | IC50 (HOP-62): > 2000 nM | IC50 (DSH1): > 2000 nM | IC50 (CW-2): > 2000 nM | IC50 (NCI-H747): > 2000 nM | IC50 (NKM-1): > 2000 nM | IC50 (GCIY): > 2000 nM | IC50 (A253 cell line): > 2000 nM | IC50 (LB996-RCC): > 2000 nM | IC50 (LB2518-MEL): > 2000 nM | IC50 (LB2241-RCC): > 2000 nM | IC50 (NCI-H1838): > 2000 nM | IC50 (HCE-4): > 2000 nM | IC50 (GT3TKB): > 2000 nM | IC50 (KARPAS-299): 1410 nM | IC50 (OMC-1): > 2000 nM | IC50 (NOMO-1): > 2000 nM | IC50 (KURAMOCHI): > 2000 nM | IC50 (EKVX): > 2000 nM | IC50 (D-502MG): > 2000 nM | IC50 (TE-6): > 2000 nM | IC50 (COLO-320-HSR): > 2000 nM | IC50 (NCI-H1304): > 2000 nM | IC50 (NMC-G1): > 2000 nM | IC50 (A3-KAW): > 2000 nM | IC50 (NCI-H2126): > 2000 nM | IC50 (LNCaP-Clone-FGC): > 2000 nM | IC50 (SW982): > 2000 nM | IC50 (HD-MY-Z): > 2000 nM | IC50 (HL-60): > 2000 nM | IC50 (MLMA): > 2000 nM | IC50 (NCI-H1581): > 2000 nM | IC50 (Calu-6): > 2000 nM | IC50 (HT-144): > 2000 nM | IC50 (SK-LMS-1): 1770 nM | IC50 (NB13): > 2000 nM | IC50 (ALL-PO): > 2000 nM | IC50 (KM-H2): > 2000 nM | IC50 (AM-38): > 2000 nM | IC50 (TE-1): > 2000 nM

COC(=O)[C@H](CCSC)NC(=O)c1ccc(NC[C@@H](N)CS)cc1-c1ccccc1
IC50 (RPMI-8226): > 1020 nM | IC50 (EW-1): > 1020 nM | IC50 (OS-RC-2): > 1020 nM | IC50 (KS-1): > 1020 nM | IC50 (KINGS-1): > 1020 nM | IC50 (MN-60): > 1020 nM | IC50 (TGW): > 1020 nM | IC50 (GOTO): > 1020 nM | IC50 (MHH-PREB-1): > 1020 nM | IC50 (NCI-H446): > 1020 nM | IC50 (SK-UT-1): > 1020 nM | IC50 (HOP-62): > 1020 nM | IC50 (DSH1): > 1020 nM | IC50 (CW-2): > 1020 nM | IC50 (NCI-H747): > 1020 nM | IC50 (NKM-1): > 1020 nM | IC50 (GCIY): > 1020 nM | IC50 (A253 cell line): > 1020 nM | IC50 (LB996-RCC): > 1020 nM | IC50 (LB2518-MEL): > 1020 nM | IC50 (LB2241-RCC): > 1020 nM | IC50 (NCI-H1838): > 1020 nM | IC50 (HCE-4): > 1020 nM | IC50 (GT3TKB): > 1020 nM | IC50 (KARPAS-299): > 1020 nM | IC50 (OMC-1): > 1020 nM | IC50 (NOMO-1): > 1020 nM | IC50 (KURAMOCHI): > 1020 nM | IC50 (EKVX): > 1020 nM | IC50 (D-502MG): > 1020 nM | IC50 (TE-6): > 1020 nM | IC50 (COLO-320-HSR): > 1020 nM | IC50 (NCI-H1304): > 1020 nM | IC50 (NMC-G1): > 1020 nM | IC50 (A3-KAW): > 1020 nM | IC50 (NCI-H2126): > 1020 nM | IC50 (LNCaP-Clone-FGC): > 1020 nM | IC50 (SW982): > 1020 nM | IC50 (HD-MY-Z): > 1020 nM | IC50 (HL-60): > 1020 nM | IC50 (MLMA): > 1020 nM | IC50 (NCI-H1581): > 1020 nM | IC50 (Calu-6): > 1020 nM | IC50 (HT-144): > 1020 nM | IC50 (SK-LMS-1): > 1020 nM | IC50 (NB13): > 1020 nM | IC50 (ALL-PO): > 1020 nM | IC50 (KM-H2): > 1020 nM | IC50 (AM-38): > 1020 nM | IC50 (TE-1): > 1020 nM

Cc1ccc(-n2nc(C(C)(C)C)cc2NC(=O)Nc2ccc(OCCN3CCOCC3)c3ccccc23)cc1 [DORAMAPIMOD]
IC50 (RPMI-8226): > 10000 nM | IC50 (EW-1): > 10000 nM | IC50 (OS-RC-2): > 10000 nM | IC50 (KS-1): > 10000 nM | IC50 (KINGS-1): > 10000 nM | IC50 (MN-60): > 10000 nM | IC50 (TGW): > 10000 nM | IC50 (GOTO): 6390 nM | IC50 (MHH-PREB-1): > 10000 nM | IC50 (NCI-H446): > 10000 nM | IC50 (SK-UT-1): > 10000 nM | IC50 (HOP-62): > 10000 nM | IC50 (DSH1): > 10000 nM | IC50 (CW-2): > 10000 nM | IC50 (NCI-H747): > 10000 nM | IC50 (NKM-1): > 10000 nM | IC50 (GCIY): > 10000 nM | IC50 (A253 cell line): > 10000 nM | IC50 (LB996-RCC): > 10000 nM | IC50 (LB2518-MEL): > 10000 nM | IC50 (LB2241-RCC): > 10000 nM | IC50 (NCI-H1838): > 10000 nM | IC50 (HCE-4): > 10000 nM | IC50 (GT3TKB): > 10000 nM | IC50 (KARPAS-299): > 10000 nM | IC50 (OMC-1): > 10000 nM | IC50 (NOMO-1): > 10000 nM | IC50 (KURAMOCHI): > 10000 nM | IC50 (EKVX): > 10000 nM | IC50 (D-502MG): > 10000 nM | IC50 (TE-6): > 10000 nM | IC50 (COLO-320-HSR): > 10000 nM | IC50 (NCI-H1304): > 10000 nM | IC50 (NMC-G1): > 10000 nM | IC50 (A3-KAW): > 10000 nM | IC50 (NCI-H2126): > 10000 nM | IC50 (LNCaP-Clone-FGC): > 10000 nM | IC50 (SW982): > 10000 nM | IC50 (HD-MY-Z): > 10000 nM | IC50 (HL-60): > 10000 nM | IC50 (MLMA): > 10000 nM | IC50 (NCI-H1581): > 10000 nM | IC50 (Calu-6): > 10000 nM | IC50 (HT-144): > 10000 nM | IC50 (SK-LMS-1): > 10000 nM | IC50 (NB13): > 10000 nM | IC50 (ALL-PO): > 10000 nM | IC50 (KM-H2): > 10000 nM | IC50 (AM-38): > 10000 nM | IC50 (TE-1): > 10000 nM
